Results on three compounds are retold here after US20210290818A1, “SCAFFOLDING MATERIAL, METHODS AND USES” (LOCATE THERAPEUTICS LIMITED, priority 2016, published 2021).

This series can be described thus: In house cohesion test of pastes (mass loss after sintering and immersion in water). Format: physicochemical. To be noted: for Effect of plasticiser in liquid carrier on paste cohesion: PLGA 95:5/PEG400/CS pellets, FIG. 4. The procedure:
Pastes were prepared by mixing particles with a liquid carrier and their setting was assessed using an ‘in house’ cohesion test. Briefly, following paste sintering, aluminium foils containing the pastes were placed onto a sieve mesh and immersed to a depth of around 1 cm of water for 1 minute (FIG. 1). Afterwards, they were carefully removed from the sieve. The samples were freeze-dried and weighed so that mass loss could be estimated.
A 355 μm sieve (Endecotts, BS410/1986) was placed on to its dedicated collection tray. • 2×100 mg of particles were manually mixed in an aluminium foil (4×4 cm circa) with 70 μl of each liquid carrier. • The obtained pastes were left to sinter in a sealed plastic bag with humidity >90% for different times. • Following sintering at RT or 37° C. in a humidified environment (>90% RH), the aluminium foils containing the pastes were placed onto the sieve mesh. • A constant, gentle, circa 7 ml/sec flow of water (Millipore, Direct-Q® 3 UV) was applied to the sieve mesh, until the samples became immersed in circa 1 cm of water. • Following immersion, samples were allowed to remain immersed in the head of water for circa 1 minute. • After the 1 minute, the sieve was removed from the sieve tray and the aluminium foils containing the samples were carefully removed from the sieve. • The samples with the aluminium foil were freeze-dried and weighed so that mass loss could be estimated. • The sieve tray (which was still filled with water) was visually inspected for the presence of particles that may have been lost from the samples during.

Each structure is given as a SMILES string. Structures can show the parent of a compound that is named as a salt.

`CC(=O)OCC(COC(C)=O)OC(C)=O` [TA, triacetin]: the “Effect of plasticiser in liquid carrier on paste cohesion” value is “behave in a similar way”.
As for `CCOC(=O)CC(O)(CC(=O)OCC)C(=O)OCC` [TEC, TriEthyl Citrate], the “Effect of plasticiser in liquid carrier on paste cohesion” value is “behave in a similar way”.
With `CCO` [ethanol, Ethanol], the “Importance of plasticiser in liquid carrier for paste setting” value (PLGA50:50/PEG400/SIM pellets, sintering 10 to 60 min at 37° C., FIG. 6) is listed as “not important for paste setting”.
